Test results taken from patent EP0765662A1, “HIV GROWTH INHIBITORY COMPOSITION” (Kochi, Mutsuyuki, priority 1994, dated 1995).
Structures can show the parent of a compound that is named as a salt.

Experiments:
ICR strain mice = assay: Evaluation of toxicity (intravenous, mice); type: in vivo; conditions: intravenously, 1000 mg per kg body weight, male, 5 mice in each group
Protocol: SBA in the form of a solution in a physiological saline (containing […]) was administered intravenously to ICR strain mice (5 week-aged, male, 5 mice in each group) at a dosage of 1000 mg per kg of the body weight of mice tested.

HIVBRU = assay: HIV-p24 antigen released from HIV-infected A3.01 cells stimulated with TNF-α; type: cell-based; conditions: TNF-α 10 units/ml; for Amount of the HIV p24 antigen: HIV-infected A3.01 cells
Text: In view of all these test results, it appears that the inhibitory activity of SBA against the replication of HIV-1 is not attributable to that SBA directly acts on HIV so as to make lose the infectivity (infectious power) of HIV. (c) Test of examining the inhibitory activity of SBA against such replication of the viral particles of HIV which is induced when a tumor necrosis factor (TNF-α) is introduced into the HIV-infected A3.01 cells AIDS virus, HIVBRU (its reverse transcriptase activity, 0.03 cpm/cell) and 6 x 10^6 cells of the A3.01 cell (HAT-susceptible CEM cell strain) were mixed and reacted together in a culture medium at 37°C for 1 hour, and thereafter the mixed cells were washed with PBS to remove the excess of the particles of HIV virus therefrom. The A3.01 cells (5 x 10^5 cells) which had been so infected with HIV were then cultivated in various culture media containing TNF-α and SBA at different concentrations of them. The amount of the HIV-p24 antigen (an HIV-structural protein of HIV) which was released in the culture supernatant from the cultivated cells under test was periodically measured during the period of between 0 day to 5th day of the cultivation. The culture medium used for the above-mentioned cultivation of the A3.01 cells was an RPM1-1640 medium comprising 10% of heat-treated embryonic bovine serum, and minor amounts of penicillin, streptomycin, glutamine and mercaptoethanol. The amount of the HIV-p24 antigen produced was measured with lapse of time, and the relationship of the amount of the HIV-p24 antigen to the concentration of SBA is summarily tabulated in Table 4 below.
In the tests above, the replication of the viral particles of HIV was examined in terms of the amount of the p24 antigen protein produced and appearing in the culture supernatant from the cultivated cells. Thus, the amount of the p24 antigen produced was measured periodically over 6 days after the A3.01 cells were infested with HIV. It was then observed that in the absence of SBA, the replication of the viral particles of HIV was induced in the A3.01 cells by stimulation with 10 units/ml of TNF-α added. […] Thus, the effective amount of SBA has the activity to inhibit the replication of the viral particles of HIV within the cells to an extent as same as AZT, and from this it is expected that SBA is useful similarly to AZT for the therapeutic treatments of AIDS. (d) Tests for evaluating an inhibitory activity of SBA to the formation of giant cells from HIV-infected Molt-4 cells In a similar manner to that in the above Test (c), Molt-4 cells (a CD4-positive human T-cell strain) were infected with AIDS virus, HIVBRU. Thereafter, The HIV-infected Molt-4 cells were mixed with such Molt-4 cells which had no HIV-infection. And the mixture of these cells were cultivated at a high density of the mixed cells in the above-mentioned improved RPM1-1640 medium containing SBA at its different concentrations. Whereupon, there was examined the presence of cell-fused cell(s) (namely, the giant cells) which were formed by fusion of the HIV-infected cells with each other or by fusion of the HIV-infected cells with the HIV-non-infected cells. The formation and appearance of the giant cells was confirmed by microscopic observation. The size of such giant cells is clearly different from the size of the other usual cells. […] Namely, it is shown that SBA has an anti-HIV activity. […] In the initial stage of the transcription of HIV-1 gene, said NFkB, i.e. the transcription regulating factor of the host cells, plays an important role. […] NFkB is known to be a complex protein which is composed by the association of a molecule of protein having a molecular weight of about 50,000 (p50) with a molecule of protein having a molecular weight of about 65,000 (p65). […]

[1] = Cytotoxicity of SBA, trypan blue dye-exclusion, U1 cells; type: cell-based; conditions: human, read-out: Rate of survival of the cells (%)
Text: (§1) It is known that stimulation of HIV gene by TPA and tumor necrosis factor (TNF) can activate the HIV gene which is latent as the HIV-provirus within the T-cells as infected with HIV and said stimulation can thus strongly induce the progresses of sprouting and release of the viral particles of HIV. It is considered that said activation of the HIV gene for the occurrence or developement of HIV virus would be caused by such an oxidation stress which is brought about within the host cells by any stimulation given from outside the host cells as above-mentioned. Further, such discoveries and observations have been reported that NFkB, which is a nuclear factor wthin the cells, can play important part in the proliferation of HIV virus, and that the oxidation-reduction status of the NFkB is important for the activation of this factor NFkB, and so on. […] (a) Test of examining cytotoxicity of SBA against various kinds of T-cells A3.01 cells (HAT-susceptible CEM cell strain), A3.01 cells as infected with HIV, and the above-mentioned U1 cells were cultivated, respectively, in an improved RPM1-1640 media containing SBA added at different concentrations. After the cultivation, the number of the cells under test which still survived was determined under a polarizing microscope by a trypan blue dye-exclusion method.

[2] = Cytotoxicity of SBA, trypan blue dye-exclusion, A3.01 cells; type: cell-based; conditions: human, read-out: Rate of survival of the cells (%)
Text: as §1

O=C1O[C@H]([C@@H]2COC(c3ccccc3)O2)C(O)=C1O (stereo partly drawn) [SBA, 5,6-O-benzylidene-L-ascorbic acid mono-sodium salt]
mortality (ICR strain mice): None of the mice thus treated died
inhibition at 10 µg/mL (HIVBRU; Human immunodeficiency virus 1, SBA 10 µg/ml, in comparison with the cases when SBA was absent, read-out: inhibition of the replication of the HIV viral particles): 50%
Amount of the HIV p24 antigen (HIVBRU; SBA 1 µg/ml, 0th day): 0 pg/mL
Amount of the HIV p24 antigen (HIVBRU; SBA 1 µg/ml, 1st day): 0 pg/mL
Amount of the HIV p24 antigen (HIVBRU; SBA 1 µg/ml, 2nd day): 0 pg/mL
Amount of the HIV p24 antigen (HIVBRU; SBA 1 µg/ml, 3rd day): 1400 pg/mL
Amount of the HIV p24 antigen (HIVBRU; SBA 1 µg/ml, 4th day): 2600 pg/mL
inhibition of the replication of the viral particles of HIV (in words) (HIVBRU; SBA 1 µg/ml, 5th day from the HIV infection): considerably inhibited
Amount of the HIV p24 antigen (HIVBRU; SBA 1 µg/ml, 5th day): 4000 pg/mL
Amount of the HIV p24 antigen (HIVBRU; SBA 10 µg/ml, 0th day): 0 pg/mL
Amount of the HIV p24 antigen (HIVBRU; SBA 10 µg/ml, 1st day): 0 pg/mL
Amount of the HIV p24 antigen (HIVBRU; SBA 10 µg/ml, 2nd day): 0 pg/mL
Amount of the HIV p24 antigen (HIVBRU; SBA 10 µg/ml, 3rd day): 800 pg/mL
Amount of the HIV p24 antigen (HIVBRU; SBA 10 µg/ml, 4th day): 1500 pg/mL
Amount of the HIV p24 antigen (HIVBRU; SBA 10 µg/ml, 5th day): 2250 pg/mL
Amount of the HIV p24 antigen (HIVBRU; SBA 100 µg/ml, 0th day): 0 pg/mL
Amount of the HIV p24 antigen (HIVBRU; SBA 100 µg/ml, 1st day): 0 pg/mL
Amount of the HIV p24 antigen (HIVBRU; SBA 100 µg/ml, 2nd day): 0 pg/mL
Amount of the HIV p24 antigen (HIVBRU; SBA 100 µg/ml, 3rd day): 0 pg/mL
Amount of the HIV p24 antigen (HIVBRU; SBA 100 µg/ml, 4th day): 0 pg/mL
Amount of the HIV p24 antigen (HIVBRU; SBA 100 µg/ml, 5th day): 0 pg/mL
inhibition of the replication of the viral particles of HIV (in words) (HIVBRU; SBA 100 µg/ml): completely inhibited
viability ([1]; SBA 100 µg/ml): 90%
viability ([1]; SBA 500 µg/ml): 100%
viability ([1]; SBA 800 µg/ml): 83%
viability ([1]; SBA 1000 µg/ml): 92%
viability ([2]; SBA 100 µg/ml): 97%
viability ([2]; SBA 1000 µg/ml): ~70%
